Values quoted from earlier work as cited in PubChem BioAssay AID1259409 (Chemical Carcinogenesis Research Information System (CCRIS), 2018).

System: rodent chemically induced tumor inhibition, incidence and multiplicity
Assay: CCRIS tumor inhibitor studies

SMILES: CC(C)NCC(O)COc1cccc2ccccc12 (stereo unspecified)
- tumour outcome (control, treated, inhibition, significance) (Carcinogen: 4-(METHYLNITROSAMINO)-1-(3-PYRIDYL)-1-BUTANONE [64091-91-4], Dose [Inhibitor]: 3 MG/KG BW 3X/WK FOR 20 WK IMMEDIATELY PRIOR TO EACH CARCINOGEN DOSE (STUDY DURATION: 52 WK), Route [Inhibitor]: SUBCUTANEOUS, Species: HAMSTER, Strain/Sex: SYRIAN/MALE, Target Tissue: Type of Lesion: LUNG: TUMOR, Dose [Carcinogen]: 10 MG/KG BW 3X/WK FOR 20 WK (STUDY DURATION: 52 WK), Promoter: NONE): 12/15 (80.0%), 6/15 (40%), 50%, not calculated
- tumour outcome (control, treated, inhibition, significance) (Carcinogen: 4-(METHYLNITROSAMINO)-1-(3-PYRIDYL)-1-BUTANONE [64091-91-4], Dose [Inhibitor]: 3 MG/KG BW 3X/WK FOR 20 WK IMMEDIATELY PRIOR TO EACH CARCINOGEN DOSE (STUDY DURATION: 52 WK), Route [Inhibitor]: SUBCUTANEOUS, Species: HAMSTER, Strain/Sex: SYRIAN/MALE, Target Tissue: Type of Lesion: NASAL CAVITY: TUMOR, Dose [Carcinogen]: 10 MG/KG BW 3X/WK FOR 20 WK (STUDY DURATION: 52 WK), Promoter: NONE): 4/15 (26.7%), 4/15 (26.7%), 0%, not calculated
- outcome (Carcinogen: 4-(Methylnitrosamino)-1-(3-pyridyl)-1-butanone, Dose [Inhibitor]: 0.3 mg/100 g bw, 5 x a wk from offspring age of 4 wks-8 mo., Route [Inhibitor]: Subcutaneous injection, Species: Hamster, Strain/Sex: Syrian golden, male and female offspring, Target Tissue: Type of Lesion: Pancreas: Tumor (in offspring), Dose [Carcinogen]: 50 mg/kg once to dams on day 15 of pregnancy, Promoter: Ethanol): 66.6%, 8.3%
- tumour outcome (control, treated, inhibition, significance) (Carcinogen: N-METHYL-N'-NITRO-N-NITROSOGUANIDINE, 70-25-7, Dose [Inhibitor]: 0, 5 MG/KG IN OLIVE OIL SUSPENSION 1/D BEGINNING 1 WK POST LAST CARCINOGEN DOSE AND CONTINUING FOR DURATION OF STUDY (ST, Species: RAT, Strain/Sex: WISTAR/MALE, Target Tissue: Type of Lesion: GLANDULAR STOMACH: ADENOCARCINOMA, Dose [Carcinogen]: 50 UG/ML IN DRINKING WATER FOR 25 WK, Promoter: NONE USED): 15/18 (83%), 11/20 (55%), 34%, not calculated

SMILES: NC(=O)c1cccc(N)c1
- outcome (Carcinogen: N-NITROSOBIS(2-HYDROXYPROPYL)AMINE, 53609-64-6, Dose [Inhibitor]: 0, 300 MG/KG 30 MIN AFTER EACH CARCINOGEN DOSE (STUDY DURATION: 35 WK), Route [Inhibitor]: INTRAPERITONEAL, Species: HAMSTER, Strain/Sex: SYRIAN/MALE, Target Tissue: Type of Lesion: BILE DUCT: CHOLANGIOCARCINOMA, Dose [Carcinogen]: 500 MG/KG IN 0.9% SALINE 1/WK FOR 5 WK, Promoter: NONE USED): 0%, 7%
- outcome (Carcinogen: N-NITROSOBIS(2-HYDROXYPROPYL)AMINE, 53609-64-6, Dose [Inhibitor]: 0, 300 MG/KG 30 MIN AFTER EACH CARCINOGEN DOSE (STUDY DURATION: 35 WK), Route [Inhibitor]: INTRAPERITONEAL, Species: HAMSTER, Strain/Sex: SYRIAN/MALE, Target Tissue: Type of Lesion: LIVER: HEPATOCELLULAR CARCINOMA, Dose [Carcinogen]: 500 MG/KG IN 0.9% SALINE 1/WK FOR 5 WK, Promoter: NONE USED): 0%, 7%
- tumour outcome (control, treated, inhibition, significance) (Carcinogen: N-NITROSOBIS(2-HYDROXYPROPYL)AMINE, 53609-64-6, Dose [Inhibitor]: 0, 300 MG/KG 30 MIN AFTER EACH CARCINOGEN DOSE (STUDY DURATION: 35 WK), Route [Inhibitor]: INTRAPERITONEAL, Species: HAMSTER, Strain/Sex: SYRIAN/MALE, Target Tissue: Type of Lesion: LUNG: ADENOCARCINOMA, Dose [Carcinogen]: 500 MG/KG IN 0.9% SALINE 1/WK FOR 5 WK, Promoter: NONE USED): 8%, 0%, 100%, not calculated
- outcome (Carcinogen: N-NITROSOBIS(2-HYDROXYPROPYL)AMINE, 53609-64-6, Dose [Inhibitor]: 0, 300 MG/KG 30 MIN AFTER EACH CARCINOGEN DOSE (STUDY DURATION: 35 WK), Route [Inhibitor]: INTRAPERITONEAL, Species: HAMSTER, Strain/Sex: SYRIAN/MALE, Target Tissue: Type of Lesion: LUNG: ADENOMA, Dose [Carcinogen]: 500 MG/KG IN 0.9% SALINE 1/WK FOR 5 WK, Promoter: NONE USED): 0%, 7%
- tumour outcome (control, treated, inhibition, significance) (Carcinogen: N-NITROSOBIS(2-HYDROXYPROPYL)AMINE, 53609-64-6, Dose [Inhibitor]: 0, 300 MG/KG 30 MIN AFTER EACH CARCINOGEN DOSE (STUDY DURATION: 35 WK), Route [Inhibitor]: INTRAPERITONEAL, Species: HAMSTER, Strain/Sex: SYRIAN/MALE, Target Tissue: Type of Lesion: PANCREAS: CARCINOMA, Dose [Carcinogen]: 500 MG/KG IN 0.9% SALINE 1/WK FOR 5 WK, Promoter: NONE USED): 39%, 40%, -3%, not calculated
- outcome (Carcinogen: N-NITROSOBIS(2-HYDROXYPROPYL)AMINE, 53609-64-6, Dose [Inhibitor]: 0, 600 MG/KG 30 MIN AFTER EACH CARCINOGEN DOSE (STUDY DURATION: 35 WK), Route [Inhibitor]: INTRAPERITONEAL, Species: HAMSTER, Strain/Sex: SYRIAN/MALE, Target Tissue: Type of Lesion: LIVER: HEPATOCELLULAR CARCINOMA, Dose [Carcinogen]: 500 MG/KG IN 0.9% SALINE 1/WK FOR 5 WK, Promoter: NONE USED): 0%, 5%
- tumour outcome (control, treated, inhibition, significance) (Carcinogen: N-NITROSOBIS(2-HYDROXYPROPYL)AMINE, 53609-64-6, Dose [Inhibitor]: 0, 600 MG/KG 30 MIN AFTER EACH CARCINOGEN DOSE (STUDY DURATION: 35 WK), Route [Inhibitor]: INTRAPERITONEAL, Species: HAMSTER, Strain/Sex: SYRIAN/MALE, Target Tissue: Type of Lesion: LUNG: ADENOCARCINOMA, Dose [Carcinogen]: 500 MG/KG IN 0.9% SALINE 1/WK FOR 5 WK, Promoter: NONE USED): 8%, 0%, 100%, not calculated
- outcome (Carcinogen: N-NITROSOBIS(2-HYDROXYPROPYL)AMINE, 53609-64-6, Dose [Inhibitor]: 0, 600 MG/KG 30 MIN AFTER EACH CARCINOGEN DOSE (STUDY DURATION: 35 WK), Route [Inhibitor]: INTRAPERITONEAL, Species: HAMSTER, Strain/Sex: SYRIAN/MALE, Target Tissue: Type of Lesion: LUNG: ADENOMA, Dose [Carcinogen]: 500 MG/KG IN 0.9% SALINE 1/WK FOR 5 WK, Promoter: NONE USED): 0%, 5%
- tumour outcome (control, treated, inhibition, significance) (Carcinogen: N-NITROSOBIS(2-HYDROXYPROPYL)AMINE, 53609-64-6, Dose [Inhibitor]: 0, 600 MG/KG 30 MIN AFTER EACH CARCINOGEN DOSE (STUDY DURATION: 35 WK), Route [Inhibitor]: INTRAPERITONEAL, Species: HAMSTER, Strain/Sex: SYRIAN/MALE, Target Tissue: Type of Lesion: PANCREAS: CARCINOMA, Dose [Carcinogen]: 500 MG/KG IN 0.9% SALINE 1/WK FOR 5 WK, Promoter: NONE USED): 39%, 25%, 36%, not calculated

SMILES: CC(C)=CCC/C(C)=C/COc1ccc2ccc(=O)oc2c1
- tumour outcome (control, treated, inhibition, significance) (Carcinogen: AZOXYMETHANE, 25843-45-2, Dose [Inhibitor]: 0, 0.01% IN DIET FOR 4 WK BEGINNING 1 WK PRIOR TO CARCINOGEN TREATMENT (STUDY DURATION: 38 WK), Route [Inhibitor]: ORAL, Species: RAT, Strain/Sex: F344/MALE, Target Tissue: Type of Lesion: COLON: ADENOCARCINOMA, Dose [Carcinogen]: 15 MG/KG BW 1/WK FOR 3 WK, Promoter: NONE): 60%, 34%, 43%, not significant
- tumour outcome (control, treated, inhibition, significance) (Carcinogen: AZOXYMETHANE, 25843-45-2, Dose [Inhibitor]: 0, 0.01% IN DIET FOR 34 WK BEGINNING 1 WK POST LAST CARCINOGEN DOSE (STUDY DURATION: 38 WK), Route [Inhibitor]: ORAL, Species: RAT, Strain/Sex: F344/MALE, Target Tissue: Type of Lesion: COLON: ADENOCARCINOMA, Dose [Carcinogen]: 15 MG/KG BW 1/WK FOR 3 WK, Promoter: NONE): 60%, 24%, 60%, p<0.021
- tumour outcome (control, treated, inhibition, significance) (Carcinogen: AZOXYMETHANE, 25843-45-2, Dose [Inhibitor]: 0, 0.05% IN DIET FOR 4 WK BEGINNING 1 WK PRIOR TO CARCINOGEN TREATMENT (STUDY DURATION: 38 WK), Route [Inhibitor]: ORAL, Species: RAT, Strain/Sex: F344/MALE, Target Tissue: Type of Lesion: COLON: ADENOCARCINOMA, Dose [Carcinogen]: 15 MG/KG BW 1/WK FOR 3 WK, Promoter: NONE): 60%, 20%, 67%, p<0.0075
- tumour outcome (control, treated, inhibition, significance) (Carcinogen: AZOXYMETHANE, 25843-45-2, Dose [Inhibitor]: 0, 0.05% IN DIET FOR 34 WK BEGINNING 1 WK POST LAST CARCINOGEN DOSE (STUDY DURATION: 38 WK), Route [Inhibitor]: ORAL, Species: RAT, Strain/Sex: F344/MALE, Target Tissue: Type of Lesion: COLON: ADENOCARCINOMA, Dose [Carcinogen]: 15 MG/KG BW 1/WK FOR 3 WK, Promoter: NONE): 60%, 20%, 67%, p<0.0075
- tumour outcome (control, treated, inhibition, significance) (Carcinogen: DIETHYLNITROSAMINE [55-18-5], Dose [Inhibitor]: 500 PPM IN DIET FOR 7 WKS, STARTING 1 WK BEFORE CARCINOGEN (STUDY DURATION: 32 WKS), Route [Inhibitor]: DIET, Species: RAT, Strain/Sex: F344/MALE, Target Tissue: Type of Lesion: LIVER: ADENOMA, Dose [Carcinogen]: 40 PPM FOR 5 WKS (STUDY DURATION: 32 WKS)): 46%, 46%, 0%
- tumour outcome (control, treated, inhibition, significance) (Carcinogen: DIETHYLNITROSAMINE [55-18-5], Dose [Inhibitor]: 500 PPM IN DIET FOR 7 WKS, STARTING 1 WK BEFORE CARCINOGEN (STUDY DURATION: 32 WKS), Route [Inhibitor]: DIET, Species: RAT, Strain/Sex: F344/MALE, Target Tissue: Type of Lesion: LIVER: CARCINOMA, Dose [Carcinogen]: 40 PPM FOR 5 WKS (STUDY DURATION: 32 WKS)): 100%, 63%, 37%
- tumour outcome (control, treated, inhibition, significance) (Carcinogen: DIETHYLNITROSAMINE [55-18-5], Dose [Inhibitor]: 500 PPM IN DIET FOR 25 WKS BEGINNING 1 WK AFTER END OF CARCINOGEN TREATMENT, Route [Inhibitor]: DIET, Species: RAT, Strain/Sex: F344/MALE, Target Tissue: Type of Lesion: LIVER: ADENOMA, Dose [Carcinogen]: 40 PPM FOR 5 WKS (STUDY DURATION: 32 WKS)): 46%, 42%, 8.7%
- tumour outcome (control, treated, inhibition, significance) (Carcinogen: DIETHYLNITROSAMINE [55-18-5], Dose [Inhibitor]: 500 PPM IN DIET FOR 25 WKS BEGINNING 1 WK AFTER END OF CARCINOGEN TREATMENT, Route [Inhibitor]: DIET, Species: RAT, Strain/Sex: F344/MALE, Target Tissue: Type of Lesion: LIVER: CARCINOMA, Dose [Carcinogen]: 40 PPM FOR 5 WKS (STUDY DURATION: 32 WKS)): 100%, 33%, 67%
